Where two headings read alike, the source gives them in different places.
Biological target: T1, catalytic domain of human Bub1 (amino acids 704-1085) (Homo sapiens, UniProt O43683)
T1 construct: catalytic domain of human Bub1 (amino acids 704-1085); His6 (N); made in house; host or cells: Hi5 insect cells
Assay: Bub1 kinase assay (TR-FRET)
Type: biochemical
Protocol: To this end, 100-fold concentrated compound solutions (in DMSO) were previously prepared by serial dilution (1:3.4) of 2 mM stocks in a clear low volume 384-well source microtiter plate (Greiner Bio-One, Frickenhausen, Germany), from which 50 nL of compounds were transferred into a black low volume test microtiter plate from the same supplier. […] The resulting mixture (5 μL final volume) was incubated at 22° C. during 60 min., and the reaction was stopped by the addition of 5 μL of an aqueous EDTA-solution (50 mM EDTA, in 100 mM HEPES pH 7.5 and 0.2% (w/v) bovine serum albumin) which also contained the TR-FRET detection reagents (0.2 μM streptavidin-XL665 [Cisbio Bioassays, Codolet, France] and 1 nM anti-phosho-Serine antibody [Merck Millipore, cat. #35-001] and 0.4 nM LANCE EU-W1024 labeled anti-mouse IgG antibody [Perkin-Elmer, product no. AD0077, alternatively a Terbium-cryptate-labeled anti-mouse IgG antibody from Cisbio Bioassays can be used]). The stopped reaction mixture was further incubated 1 h at 22° C. in order to allow the formation of complexes between peptides and detection reagents. Subsequently, the amount of product was evaluated by measurement of the resonance energy transfer from the Eu-chelate-antibody complex recognizing the Phosphoserine residue to the streptavidin-XL665 bound to the biotin moiety of the peptide. […] IC50 values were calculated by fitting the normalized inhibition data to a 4-parameter logistic equation (Minimum, Maximum, IC50, Hill; Y=Max+(Min−Max)/(1+(X/IC50) Hill)).

[1] = Biological Assay 1: Bub1 kinase assay median IC50, 10 μM ATP
[2] = 10 μM ATP, read-out: Biological Assay 1: Bub1 kinase assay median IC50

T1 sequence (O43683 704-1085): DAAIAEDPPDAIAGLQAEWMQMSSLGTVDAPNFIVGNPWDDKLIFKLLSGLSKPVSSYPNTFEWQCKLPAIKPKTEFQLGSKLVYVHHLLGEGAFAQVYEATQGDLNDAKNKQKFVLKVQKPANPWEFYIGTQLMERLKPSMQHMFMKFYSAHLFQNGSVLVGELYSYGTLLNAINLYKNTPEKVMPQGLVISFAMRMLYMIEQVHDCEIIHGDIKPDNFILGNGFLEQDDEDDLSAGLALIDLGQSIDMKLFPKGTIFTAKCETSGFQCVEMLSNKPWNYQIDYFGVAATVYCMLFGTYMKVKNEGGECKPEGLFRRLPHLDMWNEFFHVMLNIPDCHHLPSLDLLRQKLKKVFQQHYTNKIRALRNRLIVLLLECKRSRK

| SMILES | IC50 [1] | IC50 [2] |
| --- | --- | --- |
| CCOc1cc(F)c(Cn2nc(-c3ncc(CCSC)c(Nc4ccncc4)n3)c3ccccc32)c(F)c1 [Example 2-2-1, 2-[1-(4-ethoxy-2,6-difluorobenzyl)-1H-indazol-3-yl]-5-[2-(methylsulfanyl)ethyl]-N-(pyridin-4-yl)pyrimidin-4-amine] | 0.011 µM | – |
| CCOc1cc(F)c(Cn2nc(-c3ncc(CCCSC)c(Nc4ccncc4)n3)c3ccccc32)c(F)c1 [Example 2-2-2, 2-[1-(4-ethoxy-2,6-difluorobenzyl)-1H-indazol-3-yl]-5-[3-(methylsulfanyl)propyl]-N-(pyridin-4-yl)pyrimidin-4-amine] | 0.012 µM | – |
| CCOc1cc(F)c(Cn2nc(-c3ncc(C)c(Nc4ccncc4)n3)c3ccccc32)c(F)c1 [Example 2-2-4, 2-[1-(4-ethoxy-2,6-difluorobenzyl)-1H-indazol-3-yl]-5-methyl-N-(pyridin-4-yl)pyrimidin-4-amine] | 0.013 µM | – |
| CCOc1cc(F)c(Cn2nc(-c3ncc(CNC=O)c(Nc4ccncc4)n3)c3ccccc32)c(F)c1 [Example 2-2-8, N-({2-[1-(4-ethoxy-2,6-difluorobenzyl)-1H-indazol-3-yl]-4-(pyridin-4-ylamino)pyrimidin-5-yl}methyl)formamide] | 0.01 µM | – |
| CCOc1cc(F)c(Cn2nc(-c3ncc(CCOC)c(Nc4ccncc4)n3)c3ccccc32)c(F)c1 [Example 2-2-9, 2-[1-(4-ethoxy-2,6-difluorobenzyl)-1H-indazol-3-yl]-5-(2-methoxyethyl)-N-(pyridin-4-yl)pyrimidin-4-amine] | 0.012 µM | – |
| CCOc1cc(F)c(Cn2nc(-c3ncc(CCCOC)c(Nc4ccncc4C(=O)O)n3)c3ccccc32)c(F)c1 [Example 2-2-10, 4-({2-[1-(4-ethoxy-2,6-difluorobenzyl)-1H-indazol-3-yl]-5-(3-methoxypropyl)pyrimidin-4-yl}amino)nicotinic acid] | 0.02 µM | – |
| CCOc1cc(F)c(Cn2nc(-c3ncc(CCCOC)c(Nc4ccncc4)n3)c3ccccc32)c(F)c1 [Example 2-2-11, 2-[1-(4-ethoxy-2,6-difluorobenzyl)-1H-indazol-3-yl]-5-(3-methoxypropyl)-N-(pyridin-4-yl)pyrimidin-4-amine] | 0.017 µM | – |
| CCOc1cc(F)c(Cn2nc(-c3ncc(CCCN4CCOCC4)c(Nc4ccncc4)n3)c3ccccc32)c(F)c1 [Example 2-2-13, 2-[1-(4-ethoxy-2,6-difluorobenzyl)-1H-indazol-3-yl]-5-[3-(morpholin-4-yl)propyl]-N-(pyridin-4-yl)pyrimidin-4-amine] | 0.015 µM | – |
| CCOc1cc(F)c(Cn2nc(-c3ncc(CC4OCCO4)c(Nc4ccncc4)n3)c3ccccc32)c(F)c1 [Example 2-2-15, 5-(1,3-dioxolan-2-ylmethyl)-2-[1-(4-ethoxy-2,6-difluorobenzyl)-1H-indazol-3-yl]-N-(pyridin-4-yl)pyrimidin-4-amine] | 0.014 µM | – |
| CCOc1cc(F)c(Cn2nc(-c3ncc(CCCCN4CC(F)(F)C4)c(Nc4ccncc4)n3)c3ccccc32)c(F)c1 [Example 2-2-20, 5-[4-(3,3-difluoroazetidin-1-yl)butyl]-2-[1-(4-ethoxy-2,6-difluorobenzyl)-1H-indazol-3-yl]-N-(pyridin-4-yl)pyrimidin-4-amine] | 0.058 µM | – |
| COCCOc1cc(F)c(Cn2nc(-c3ncc(C4CC4)c(Nc4ccncc4OC)n3)c3ccccc32)c(F)c1 [Example 2-2-48, 5-cyclopropyl-2-{1-[2,6-difluoro-4-(2-methoxyethoxy)benzyl]-1H-indazol-3-yl}-N-(3-methoxypyridin-4-yl)pyrimidin-4-amine] | 0.0037 µM | – |
| Cc1cnccc1Nc1nc(-c2nn(Cc3c(F)cc(O)cc3F)c3ccccc23)nc2c1CCC2 [Example 2-6-5, 3,5-difluoro-4-[(3-{4-[(3-methylpyridin-4-yl)amino]-6,7-dihydro-5H-cyclopenta[d]pyrimidin-2-yl}-1H-indazol-1-yl)methyl]phenol] | 0.0077 µM | – |
| CC(=O)Nc1cc(Nc2nc(-c3nn(Cc4c(F)cc(O)cc4F)c4ccccc34)nc3c2CCC3)ccn1 [Example 2-6-7, N-[4-({2-[1-(2,6-difluoro-4-hydroxybenzyl)-1H-indazol-3-yl]-6,7-dihydro-5H-cyclopenta[d]pyrimidin-4-yl}amino)pyridin-2-yl]acetamide] | 0.0093 µM | – |
| Cc1cc(Nc2nc(-c3nn(Cc4c(F)cc(O)cc4F)c4ccccc34)nc3c2CCC3)ccn1 [Example 2-6-8, 3,5-difluoro-4-[(3-{4-[(2-methylpyridin-4-yl)amino]-6,7-dihydro-5H-cyclopenta[d]pyrimidin-2-yl}-1H-indazol-1-yl)methyl]phenol] | 0.046 µM | – |
| Oc1cc(F)c(Cn2nc(-c3nc4c(c(Nc5ccncn5)n3)CCC4)c3ccccc32)c(F)c1 [Example 2-6-11, 3,5-difluoro-4-({3-[4-(pyrimidin-4-ylamino)-6,7-dihydro-5H-cyclopenta[d]pyrimidin-2-yl]-1H-indazol-1-yl}methyl)phenol] | 0.014 µM | – |
| COc1cnccc1Nc1nc(-c2nn(Cc3c(F)cc(OCCO)cc3F)c3ccccc23)nc2c1CCC(C)(C)C2 [Example 2-6-26, 2-{3,5-difluoro-4-[(3-{4-[(3-methoxypyridin-4-yl)amino]-7,7-dimethyl-5,6,7,8-tetrahydroquin-azolin-2-yl}-1H-indazol-1-yl)methyl]phenoxy}ethanol] | 0.042 µM | – |

Continued, values first:

| IC50 [1] | IC50 [2] | SMILES |
| --- | --- | --- |
| – | 0.0087 µM | COCCOc1cc(F)c(Cn2nc(-c3ncc(C)c(Nc4ccncc4OC)n3)c3ccccc32)c(F)c1 [Example 2-2-47, 2-{1-[2,6-difluoro-4-(2-methoxyethoxy)benzyl]-1H-indazol-3-yl}-N-(3-methoxypyridin-4-yl)-5-methylpyrimidin-4-amine] |
| 0.0089 µM | – | CCOc1cc(F)c(Cn2nc(-c3ncc(CS(C)(=O)=O)c(Nc4ccncc4)n3)c3ccccc32)c(F)c1 [Example 2-3-3, 2-[1-(4-ethoxy-2,6-difluorobenzyl)-1H-indazol-3-yl]-5-[(methylsulfonyl)methyl]-N-(pyridin-4-yl)pyrimidin-4-amine] |
| 0.48 µM | – | CS(=O)(=O)Cc1cnc(-c2nn(Cc3c(F)cc(OCCO)cc3F)c3ccccc23)nc1N(CCO)c1ccncc1 [Example 2-4-4, 2-[(2-{1-[2,6-difluoro-4-(2-hydroxyethoxy)benzyl]-1H-indazol-3-yl}-5-[(methylsulfonyl)methyl]pyrimidin-4-yl)(pyridin-4-yl)amino]ethanol] |
| 0.0097 µM | – | Nc1cc(Nc2nc(-c3nn(Cc4c(F)cc(OCCO)cc4F)c4ccccc34)nc3c2CCC3)ccn1 [Example 2-4-7, 2-{4-[(3-{4-[(2-aminopyridin-4-yl)amino]-6,7-dihydro-5H-cyclopenta[d]pyrimidin-2-yl}-1H-indazol-1-yl)methyl]-3,5-difluorophenoxy}ethanol] |
| 0.011 µM | – | CCOc1cc(F)c(Cn2nc(-c3nc(Nc4ccnc(NC(C)=O)c4)cc([C@H](C)O)n3)c3ccccc32)c(F)c1 [Example 2-4-9, N-[4-({2-[1-(4-ethoxy-2,6-difluorobenzyl)-1H-indazol-3-yl]-6-[(1S)-1-hydroxyethyl]pyrimidin-4-yl}amino)pyridin-2-yl]acetamide] |
| 0.51 µM | – | Cc1nccc(Nc2cc(C(C)C)nc(-c3nn(Cc4c(F)cc(OCCO)cc4F)c4ccccc34)n2)n1 [Example 2-6-28, 2-{3,5-difluoro-4-[(3-{4-isopropyl-6-[(2-methylpyrimidin-4-yl)amino]pyrimidin-2-yl}-1H-indazol-1-yl)methyl]phenoxy}ethanol] |
| – | 3.2 µM | Cc1cc(Nc2cc(C(C)C)nc(-c3nn(Cc4c(F)cc(OCCO)cc4F)c4ccccc34)n2)c(C)cn1 [Example 2-6-30, 2-{4-[(3-{4-[(2,5-dimethylpyridin-4-yl)amino]-6-isopropylpyrimidin-2-yl}-1H-indazol-1-yl)methyl]-3,5-difluorophenoxy} ethanol] |
| 0.21 µM | – | Cc1nccc(Nc2nc(-c3nn(Cc4c(F)cc(OCCO)cc4F)c4ccccc34)nc(C)c2F)n1 [Example 2-6-32, 2-{3,5-difluoro-4-[(3-{5-fluoro-4-methyl-6-[(2-methylpyrimidin-4-yl)amino]pyrimidin-2-yl}-1H-indazol-1-yl)methyl]phenoxy}ethanol] |
| 0.0093 µM | – | OCCOc1cc(F)c(Cn2nc(-c3nc4c(c(Nc5ccncn5)n3)CN(CC(F)(F)F)C4)c3ccccc32)c(F)c1 [Example 2-6-40, 2-[3,5-difluoro-4-({3-[4-(pyrimidin-4-ylamino)-6-(2,2,2-trifluoroethyl)-6,7-dihydro-5H-pyrrolo[3,4-d]pyrimidin-2-yl]-1H-indazol-1-yl}methyl)phenoxy]ethanol] |
| 0.014 µM | – | COc1cnccc1Nc1nc(-c2nn(Cc3c(F)cc(OCCO)cc3F)c3ccccc23)nc2c1CN(CC(F)(F)F)C2 [Example 2-6-41, 2-{3,5-difluoro-4-[(3-{4-[(3-methoxypyridin-4-yl)amino]-6-(2,2,2-trifluoroethyl)-6,7-dihydro-5H-pyrrolo[3,4-d]pyrimidin-2-yl}-1H-indazol-1-yl)methyl]phenoxy}ethanol] |
